Assay results published in US5468772A, “Tripterinin compound and method” (Pharmagenesis, Inc., priority 1993, dated 1995).

How the values were obtained:
Format in all cases: cell-based
[1] = test system: cultured human PBLs and mouse thymocytes; assay: Cytotoxicity, trypan blue vital dye staining; conditions: up to 10 μg/ml
Experimental: Potential cytotoxicity of tripterinin was assessed by measurement of the effect of the compound on reduction of MTT (3-[4,5-Dimethylthiazol-2-yl]-2,5-diphenyltetrazolium bromide) by cultured cells, an index of cellular respiration and a sensitive assay for the detection of cytotoxicity (Green, et al.). Toxicity was evaluated in vitro in human PBLs and in mouse thymocytes, as detailed in Example 7. Sodium azide was used as a cytotoxic control. Cytotoxicity was also assessed using the standard method of trypan blue dye staining.
Cytotoxicity was assessed in cultured human PBLs and mouse thymocytes. A stock solution of MTT (Sigma), 5 mg MTT/ml phosphate buffered saline, pH 7.4, was prepared and stored in the dark at 4° C. Following 21 hours incubation under conditions identical to those above, 25 μl of MTT solution was added to each culture well. After an additional 3 hour incubation, the experiment was terminated by addition of a solution of 10% sodium dodecyl sulfate in 0.01N HCl. Following overnight incubation at 37° C. (to solubilize the formazan crystals, the MTT reduction product), optical density was determined at 570-650 nm in a Molecular Devices microtiter plate reader. Data are expressed as the ratio of the optical density of the tripterinin treated sample to that of untreated controls. […] The standard method of trypan blue vital dye staining was also used to assess toxicity.

mouse thymocytes = assay: Inhibition of IL-1 action: IL-1 stimulated mouse thymocyte proliferation in presence of PHA
Experimental: The ability of tripterinin and tripterifordin to suppress the cell-proliferative effect of IL-1 in mouse thymocytes, an index of IL-1 action (O'Gara), was also examined. In this study, mouse thymocytes in culture were stimulated with IL-1 in the presence of phytohemagglutinin (PHA) and increasing concentrations of purified tripterinin or tripterifordin. The cells were cultured for 72 hours, and during the last four hours, incubated with tritiated thymidine. DNA synthesis was assessed by measurement of radiolabeled thymidine incorporation.
Mouse thymocytes were prepared, and the action of IL-1, which stimulates thymocyte proliferation, was measured using standard techniques (O'Gara). Three to six week old C3H/HeN mice were obtained from Simonsen Laboratories, Gilroy, Calif. and sacrificed by CO2 inhalation. Thymi were removed, separated from adherent non-thymic tissue, homogenized in Hank's balanced salt solution (Gibco) using a glass homogenizer, and centrifuged at 180×g for 10 minutes at 15° C. Following an additional wash in HBSS, the thymocytes were resuspended in RPMI 1640 tissue culture medium (Gibco) containing 50 μM 2-mercaptoethanol (Fisher), 2 mM glutamine (Gibco), 1 mM sodium pyruvate, non-essential amino acids, penicillin (100 U/ml) streptomycin (100 μg/ml), 10% heat inactivated fetal bovine serum and Phytohemagglutinin (PHA, Pharmacia, final concentration 10 μg/ml). Cells were cultured in round-bottom 96 well microtiter tissue culture plates, 6×10^5 cells per well in a volume of 100 μl. Tripterinin or tripterifordin was diluted in tissue culture medium and added to the wells in the presence and absence of IL-1 (recombinant human IL-1, R&D Systems catalog #201-LB, 0.1 ng/ml). Total volume was 150 μl per well.
Plates were incubated for 72 hours (95% air/5% CO2, 37° C.). During the last four hours of incubation, [^3 H]-thymidine (Amersham, […]) was added (0.5 μCi per well). Cells were harvested onto Whatman 934-AH glass microfiber filters and counted in a Beckman LS 6000 scintillation counter. Results were expressed as counts per minute per well.

[2] = test system: human peripheral blood lymphocytes; assay: Suppression of human PBL proliferation in vitro ([3H]thymidine incorporation), with or without anti-CD3 (X-35)
Experimental: One measure of immunosuppression is suppression of stimulated peripheral blood lymphocyte (PBL) proliferation in vitro. In the assay detailed in Example 3, PBLs were activated in vitro by addition of anti-CD3 monoclonal antibody (X-35 antibody). At the same time, purified tripterinin or vehicle (control) was added to each culture, at selected concentrations. After 72 hours incubation, tritiated thymidine was added to the culture medium, and thymidine incorporation into DNA was assayed, as a measure of DNA synthesis associated with cell proliferation.
The ability of tripterifordin to inhibit anti-CD3 stimulated PBL proliferation was assayed at concentrations of 0, 0.78, 3.13, and 12.5 μg/ml, with the results shown in FIG. 9.
Human peripheral blood lymphocytes were prepared using an established method (Boyum). Human blood buffy coat samples, approximately 25 ml/donor, were obtained from the Stanford University Medical Center Blood Bank. Using sterile technique, the buffy coat samples were gently resuspended in a total volume of 100 ml with the addition of calcium and magnesium free Hank's balanced salt solution (HBSS, obtained from Gibco) at room temperature. A volume of 25 ml of the cell suspension was then layered onto 15 ml of Ficoll-Pacque (Pharmacia LKB Biotechnology, Inc.) in a 50 ml conical centrifuge tube. Tubes were centrifuged in a Beckman GPR tabletop centrifuge (GH-3.7 Rotor) at 400×g for 30 minutes at 15° C.
Following centrifugation, the PBL suspensions at the interfaces were transferred to new 50 ml tubes using a transfer pipette, and the PBL samples were resuspended in a total volume of 45 ml HBSS and centrifuged at 354×g for 10 minutes at 15° C. Supernatants were discarded. PBL's were resuspended in 10 ml HBSS, combined to make a total of 45 ml HBSS, and centrifuged at 265×g for 10 minutes at 15° C. The cell pellets were suspended in 10 ml of X-Vivo tissue culture medium (Bio Whittaker) and counted using a hemocytometer. Tissue culture medium was then added to achieve a final cell concentration of 1× 10^6 cells/ml. Additional dilutions were carried out as required for each assay.
Assays were carried out in 96 well sterile tissue culture plates (Costar 3790 and Costar 3595). A volume of 150 μl of X-Vivo medium or sterile distilled water was added to the outer wells of the plate to prevent evaporation of medium within the experimental wells. PBL's from 2 different donors were used in parallel in all experiments. A volume of 100 μl PBL suspension was added to each well using a multichannel pipette. Plates were incubated in an atmosphere of 93% air/7% CO2 in a tissue culture incubator at 37° C. X-35 (AMAC #0178), an anti CD-3 surface antigen antibody, was used at 5 ng/ml to stimulate PBL proliferation.
Tripterinin or tripterifordin was dissolved in ethanol (10 mg/ml) and then diluted in sterile X-Vivo tissue culture medium to obtain the final concentrations required for each experiment.
Four hours prior to the conclusion of incubation, 50 μl of X-Vivo tissue culture medium containing 8 μCi/ml [^3 H]Thymidine (Amersham, 49 Ci/mmol) was added to each tissue culture well. After 72 hours total incubation time, the cells were removed from the tissue culture wells and applied to filter paper using a cell harvester (Brandel Model MB-24). The filter paper was dried for one hour under a heat lamp and then cut into 1 cm discs. Each sample was placed in a scintillation vial containing 2 ml of scintillation fluid (Biosafe, Research Products International Corp.). Samples were counted in a Beckman LS 6000SC scintillation counter.

C[C@]12CCC[C@]3(COC1=O)[C@@H]2CC[C@@]12C[C@@H](CC[C@]13O)[C@](C)(O)C2 [tripterinin] was tested, and the “cytotoxicity (trypan blue staining)” value [1] was “consistent with those from the MTT reduction assay”, the “cytotoxicity (trypan blue staining)” value ([1]; listed as Tripterinin) was “no significant toxicity” and the “concentration at which IL-1 stimulated cell proliferation was inhibited” value (mouse thymocytes; mouse thymocytes, IL-1 with PHA, FIG. 10) was “about 0.2 μg/ml”. The “inhibition of IL-1 stimulated thymocyte proliferation” value (mouse thymocytes; tripterifordin 3.13 μg/ml, about 3 μg/ml, tripterinin 0.02 to 1 μg/ml) was “dose dependent inhibition”, the “inhibition of PBL proliferation” value ([2]; 0.78 μg/ml tripterinin, unstimulated and anti-CD3 stimulated PBLs) was “substantially complete inhibition” and the “Half maximal inhibition of PBL proliferation” value ([2]; FIG. 8, 72 h) was “approximately 0.5 μg/ml”. For the same compound, the “inhibitory effect on PBL proliferation” value ([2]; stimulated and unstimulated (tripterinin), FIG. 9 (tripterifordin)) was “inhibited PBL proliferation” and the “inhibition of PBL proliferation, dose dependence” value ([2]; unstimulated and anti-CD3 stimulated PBLs) was “dose dependent inhibition”.
